Data reported in patent publication US20250230193A1, “CYCLIC COMPOUND HAVING SELECTIVE KRAS INHIBITORY EFFECT ON HRAS AND NRAS” (CHUGAI SEIYAKU KABUSHIKI KAISHA, priority 2022, published 2025).
Where a SMILES comes first, the peptide text is derived from it. Bridges are numbered along the chain shown (N, C = ends). [ ]: non-standard residue; d: D form. The star is where a group is joined. hPhe(3-Cl-4-CF3) = N[C@@H](CCc1ccc(C(F)(F)F)c(Cl)c1)C(=O)O; NMePhe(4-Me) = CN[C@@H](Cc1ccc(C)cc1)C(=O)O; NMeGly(cPent) = CN[C@H](C(=O)O)C1CCCC1; NMeD = CN[C@@H](CC(=O)O)C(=O)O; NMeL = CN[C@@H](CC(C)C)C(=O)O; Morpholide = C1CN(*)CCO1; NMeA = CN[C@@H](C)C(=O)O; Ac5c = NC1(C(=O)O)CCCC1; Aze = O=C(O)[C@@H]1CCN1; NEtG = CCNCC(=O)O

Experiments:
[1] = molecular target: GDP-bound HRAS wild-type protein (Homo sapiens, UniProt P01112); test: Binding to HRAS by surface plasmon resonance (SPR), Single Cycle Kinetics; conditions: for HRAS/KRAS (ratio of KD value with respect to HRAS to KD value with respect to KRAS) / HRAS/KRAS (ratio of KD value for HRAS to KD value for KRAS): GDP-bound HRAS wild-type vs GDP-bound KRAS wild-type
Sequence of GDP-bound HRAS wild-type protein (P01112 whole entry): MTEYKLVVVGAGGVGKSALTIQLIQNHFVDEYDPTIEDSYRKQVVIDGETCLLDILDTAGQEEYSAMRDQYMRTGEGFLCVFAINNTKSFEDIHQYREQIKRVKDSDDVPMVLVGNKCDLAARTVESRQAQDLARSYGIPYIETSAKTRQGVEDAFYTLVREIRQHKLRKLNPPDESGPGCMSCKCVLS

[2] = molecular target: GDP-bound NRAS wild-type protein (Homo sapiens, UniProt P01111); test: Binding to NRAS by surface plasmon resonance (SPR), Single Cycle Kinetics; conditions: for NRAS/KRAS (ratio of KD value with respect to NRAS to KD value with respect to KRAS) / NRAS/KRAS (ratio of KD value for NRAS to KD value for KRAS): GDP-bound NRAS wild-type vs GDP-bound KRAS wild-type
Sequence of GDP-bound NRAS wild-type protein (P01111 whole entry): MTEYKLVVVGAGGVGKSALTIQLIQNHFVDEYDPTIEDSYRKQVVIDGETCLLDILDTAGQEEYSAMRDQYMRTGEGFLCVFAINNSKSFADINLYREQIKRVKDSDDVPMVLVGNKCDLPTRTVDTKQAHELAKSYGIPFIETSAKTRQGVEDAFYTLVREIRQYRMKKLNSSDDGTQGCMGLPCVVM

CCO[C@@H]1C[C@H]2C(=O)NC3(CC(C)(C)C3)C(=O)N(C)[C@@H](C3CCCC3)C(=O)N(C)[C@H](C(=O)N3CCCCC3)CC(=O)N(C)[C@@H](COC)C(=O)N[C@@H]([C@@H](C)CC)C(=O)N(C3CC3)CC(=O)N(C)[C@H]3C/C=C\CCN(C3=O)[C@@H](Cc3ccc(C(F)(F)F)cc3)C(=O)N(C)CC(=O)N[C@@H](CCc3cc(F)c(C(F)(F)F)c(F)c3)C(=O)N2C1 [PP2666]
HRAS/KRAS (ratio of KD value with respect to GDP-bound HRAS wild-type protein to KD value with respect to KRAS) ([1]; KD ratio HRAS/KRAS, class symbols): AA (a compound having 20 or more is denoted as AA)
NRAS/KRAS (ratio of KD value with respect to GDP-bound NRAS wild-type protein to KD value with respect to KRAS) ([2]; KD ratio NRAS/KRAS, class symbols): AA (a compound having 20 or more is denoted as AA)

CC[C@H](C)[C@@H]1NC(=O)[C@H](CC(C)C)N(C)C(=O)C[C@@H](C(=O)N2CCOCC2)N(C)C(=O)[C@H](C2CCCC2)N(C)C(=O)C2(CCCC2)NC(=O)[C@@H]2CCCN2C(=O)[C@H](CCc2ccc(C(F)(F)F)c(Cl)c2)NC(=O)CN(CC)C(=O)[C@H](Cc2ccc(C)cc2)N(C)C(=O)[C@@H]2CCN2C(=O)[C@H](C)N(C)C1=O [PP0004] ([NMeL]I[NMeA][Aze][NMePhe(4-Me)][NEtG][hPhe(3-Cl-4-CF3)]P[Ac5c][NMeGly(cPent)][NMeD]-Morpholide; lactam N-11)
HRAS/KRAS (ratio of KD for GDP-bound HRAS wild-type to KD for KRAS) ([1]; KD ratio HRAS/KRAS, SPR): C (A compound having a KD ratio of 0.1 or more and less than 3 is denoted as C)
NRAS/KRAS (ratio of KD for GDP-bound NRAS wild-type to KD for KRAS) ([2]; KD ratio NRAS/KRAS, SPR): C (A compound having a KD ratio of 0.1 or more and less than 3 is denoted as C)

CC[C@H](C)[C@@H]1NC(=O)[C@H](CC)N(C)C(=O)C[C@@H](C(=O)N(C)C)N(C)C(=O)[C@H](C2CCCC2)N(C)C(=O)C2(CCC2)NC(=O)[C@@H]2C[C@H](F)CN2C(=O)[C@H](CCc2cc(F)c(C(F)(F)F)c(F)c2)NC(=O)CN(C)C(=O)[C@H](Cc2ccc(C(F)(F)F)cc2)N2CC/C=C\C[C@@H](C2=O)N(C)C(=O)CN(C)C1=O [PP1132]
HRAS/KRAS (ratio of KD value with respect to HRAS to KD value with respect to KRAS) ([1]; KD ratio, SPR): B (a compound having 3 or more and less than 10 is denoted as B)
NRAS/KRAS (ratio of KD value with respect to NRAS to KD value with respect to KRAS) ([2]; KD ratio, SPR): A (a compound having 10 or more and less than 20 is denoted as A)

CCO[C@@H]1C[C@H]2C(=O)NC3(CCC3)C(=O)N(C)[C@@H](C(CC)CC)C(=O)N(C)[C@H](C(=O)N3CCOCC3)CC(=O)N(C)[C@@H](CC(C)C)C(=O)N[C@@H]([C@@H](C)CC)C(=O)N(C)CC(=O)N(C)[C@H]3CCCCCN(C3=O)[C@@H](Cc3ccc(C(F)(F)F)cc3)C(=O)N(C)CC(=O)N[C@@H](CCc3cc(F)c(C(F)(F)F)c(F)c3)C(=O)N2C1 [PP0820]
HRAS/KRAS (ratio of KD value with respect to HRAS to KD value with respect to KRAS) ([1]; KD ratio, SPR): B (a compound having 3 or more and less than 10 is denoted as B)
NRAS/KRAS (ratio of KD value with respect to NRAS to KD value with respect to KRAS) ([2]; KD ratio, SPR): A (a compound having 10 or more and less than 20 is denoted as A)

CC[C@H](C)[C@@H]1NC(=O)[C@H](CC(C)C)N(C)C(=O)C[C@@H](C(=O)N(C)C)N(C)C(=O)[C@H](C2CCCC2)N(C)C(=O)C2(CCC2)NC(=O)[C@@H]2C[C@@H](C)CN2C(=O)[C@H](CCc2ccc(C(F)(F)F)c(OC)c2)NC(=O)CN(C)C(=O)[C@H](Cc2ccc(C)cc2)N2CC/C=C\C[C@@H](C2=O)N(C)C(=O)CN(C)C1=O [PP1867]
HRAS/KRAS (ratio of KD value for HRAS to KD value for KRAS) ([1]; KD ratio, SPR): B (a compound having 3 or more and less than 10 is denoted as B)
NRAS/KRAS (ratio of KD value for NRAS to KD value for KRAS) ([2]; KD ratio, SPR): A (a compound having 10 or more and less than 20 is denoted as A)

CC[C@H](C)[C@@H]1NC(=O)[C@H](CC(C)C)N(C)C(=O)C[C@@H](C(=O)N(C)C)N(C)C(=O)[C@H](C2CCCC2)N(C)C(=O)C2(CCC2)NC(=O)[C@@H]2CC(F)(F)CN2C(=O)[C@H](CCc2cc(F)c(C(F)(F)F)c(F)c2)NC(=O)CN(C)C(=O)[C@H](Cc2ccc(C(F)(F)F)cc2)N2CCCCC[C@@H](C2=O)N(C)C(=O)CN(C)C1=O [PP0466]
HRAS/KRAS (ratio of KD value with respect to GDP-bound HRAS wild-type protein to KD value with respect to KRAS) ([1]; KD ratio HRAS/KRAS, SPR): B (a compound having 3 or more and less than 10 is denoted as B)
NRAS/KRAS (ratio of KD value with respect to GDP-bound NRAS wild-type protein to KD value with respect to KRAS) ([2]; KD ratio NRAS/KRAS, SPR): B (a compound having 3 or more and less than 10 is denoted as B)

CCOC[C@H]1C(=O)N[C@@H]([C@@H](C)CC)C(=O)N2CCC[C@H]2C(=O)N(C)[C@H]2C/C=C\CCN(C2=O)[C@@H](Cc2ccc(C)cc2)C(=O)N(C)CC(=O)N[C@@H](CCc2cc(F)c(C(F)(F)F)c(F)c2)C(=O)N2C[C@H](OCC)C[C@H]2C(=O)NC2(CC(C)(C)C2)C(=O)N(C)[C@@H](C2CCCC2)C(=O)N(C)[C@H](C(=O)N(C)CC)CC(=O)N1C [PP2428]
HRAS/KRAS (ratio of KD value with respect to HRAS to KD value with respect to KRAS) ([1]; SPR): A (a compound having 10 or more and less than 20 is denoted as A)
NRAS/KRAS (ratio of KD value with respect to NRAS to KD value with respect to KRAS) ([2]; SPR): A (a compound having 10 or more and less than 20 is denoted as A)

CCCN(C)C(=O)[C@@H]1CC(=O)N(C)[C@@H](CCOC)C(=O)N[C@@H]([C@@H](C)CC)C(=O)N(C)CC(=O)N(C)[C@H]2C/C=C\CCN(C2=O)[C@@H](Cc2ccc(C(F)(F)F)cc2)C(=O)N(C)CC(=O)N[C@@H](CCc2ccc(C(F)(F)F)c(OC)c2)C(=O)N2C[C@H](OCC)C[C@H]2C(=O)NC2(CCC2)C(=O)N(C)[C@@H](C2CCCC2)C(=O)N1C [PP2018]
HRAS/KRAS (ratio of KD value for HRAS to KD value for KRAS) ([1]; KD ratio, SPR): B (a compound having 3 or more and less than 10 is denoted as B)
NRAS/KRAS (ratio of KD value for NRAS to KD value for KRAS) ([2]; KD ratio, SPR): A (a compound having 10 or more and less than 20 is denoted as A)
